Key:
[1] = test system: Chlamydomonas reinhardtii GB-2951; experiment: Herbicide resistance test of GB-2951 grown in TAP liquid media with various concentrations of the compounds; format: cell-based; conditions: compared with wild type strain CC-125
Procedure: Resistance of GB-2951 to several herbicides was tested by growing the strain in TAP liquid media containing various concentration of the compounds, according to the method described by Shibata et al. (Research in Photosynthesis, Vol III, pp. 567-570, Murata ed., c. 1992 by Kluwer Academic Publisher, Dordrecht, Netherlands). […] Moreover, GB-2951 was crossed to wild type strain CC-124 and several sets of tetrads were isolated according to the method as described by Harris (Harris, E. H., The Chlamydomonas Sourcebook, c. 1989 by Academic Press, San Diego, Calif.). All tetrads segregated two herbicide (compound A) sensitive and two herbicide-resistant progeny. In addition, tetrads from a cross of GB-2951 to RS-322, a porphyria herbicide-resistant isolate from a cross of RS-3 and CC-124, yielded no herbicide-sensitive progeny.

[2] = test system: crop plants transformed with the herbicide-resistant PPO gene; experiment: Weed control test, crop phytotoxicity in greenhouse; format: in vivo; conditions: 100 g/ha; either method (soil surface after sowing, 27 days; sprayed onto plants at 18 days, 20 days)
Procedure: (§1) Flats with an area of 33×23 cm^2 and a depth of 11 cm are filled with upland field soil. Seeds of crop plants with herbicide-resistant PPO genes developed according to methods similar to those described in Example 16 are planted along with those of weeds such as Echinochloa crus-galli, Abutilon theophrasti and Ipomoea hederacea, and covered with 1-2 cm soil. Compounds of formulae 20 and 22 (wherein R is an ethyl group) of an amount of equivalent to 100 g/ha are dissolved in 20 volumes of a mixture of surfactant and liquid carrier, such as a mixture of calcium dodecylbenzenesulfonate/polyoxyethylene styrylphenyl ether/xylene/cyclohexanone=1:2:4:8 (v/v), and diluted with water of a volume equivalent to 10 L/ha, then sprayed on surface of the soil immediately after sowing. Test plants are grown in a greenhouse for 27 days after treatment to observe weed control activity and crop phytotoxicity of the test compounds.
Seeds of the aforementioned crop plants with herbicide-resistant PPO genes are planted along with those of weeds such as Echinochloa crus-galli, Abutilon theophrasti and Ipomoea hederacea, covered with soil of 1-2 cm deep, and the plants grown for 18 days in the greenhouse. […]

Abutilon theophrasti = experiment: Weed control test in greenhouse; format: in vivo; conditions: 100 g/ha; either method (soil surface after sowing, 27 days; sprayed onto plants at 18 days, 20 days)
Procedure: as §1
(§2) Seeds of the aforementioned crop plants with herbicide-resistant PPO genes are planted along with those of weeds such as Echinochloa crus-galli, Abutilon theophrasti and Ipomoea hederacea, covered with soil of 1-2 cm deep, and the plants grown for 18 days in the greenhouse. Compounds of formulae 20 and 22 (wherein R is an ethyl group) of an amount of equivalent to 100 g/ha are dissolved in 20 volumes of a mixture of surfactant and liquid carrier, such as the mixture of calcium dodecylbenzenesulfonate/polyoxyethylene styrylphenyl ether/xylene/cyclohexanone=1:2:4:8 (v/v), and diluted with water of a volume equivalent to 10 L/ha, then sprayed onto plants from the above. Test plants are grown in a greenhouse for 20 days after treatment for observation of weed control activity and crop phytotoxicity by test compounds.

Echinochloa crus-galli = experiment: Weed control test in greenhouse; format: in vivo; conditions: 100 g/ha; either method (soil surface after sowing, 27 days; sprayed onto plants at 18 days, 20 days)
Procedure: as §1, §2

Ipomoea hederacea = experiment: Weed control test in greenhouse; format: in vivo; conditions: 100 g/ha; either method (soil surface after sowing, 27 days; sprayed onto plants at 18 days, 20 days)
Procedure: as §1, §2

[3] = test system: E. coli strains with the cDNA encoding a herbicide-sensitive PPO (sensitive transformants); experiment: Colony formation of herbicide-sensitive E. coli SASX38 transformants on LB+ampicillin agar with compound; format: cell-based; conditions: particular concentration of Compound A, two days, compared to medium lacking Compound A
Source text: (§3) The plasmid vector containing the cDNA encoding a herbicide-sensitive PPO enzyme obtained in Example 2 or 9 is introduced into the mutant SASX38 strain of E. coli in which the endogenous the PPO gene (hemG locus) is deleted and herbicide-sensitive transformants are selected by the method in Example 2. Similarly, a cDNA encoding a herbicide-resistant PPO is obtained according to the method in Example 12, with a base pair alteration at the position of Val13 in SEQ. ID. NO.: 1, SEQ. ID. NO.: 2 and SEQ. ID. NO.: 3 resulting in the substitution of methionine for valine. Said cDNA is re-cloned in the plasmid vector pUC118 (Nishimura et al., J. Biol. Chem. 270: 8076 (1995)), and said plasmid vector is introduced into E. coli SASX38 to obtain herbicide-resistant transformants. Both sensitive and resistant transformants are separately plated on LB+ ampicillin agar medium supplemented with compound A at a given concentration, and incubated for two days. Colony formation is then evaluated to assess the growth of the sensitive and resistant transformants in the presence of the herbicide. […]

[4] = test system: E. coli strains with a cDNA encoding a herbicide-resistant PPO (resistant transformants); experiment: Colony formation of herbicide-resistant E. coli SASX38 transformants on LB+ampicillin agar with compound; format: cell-based; conditions: same concentration of Compound A, compared to medium free of Compound A
Source text: as §3

With `CN(C)C(=O)Nc1ccc(Cl)c(Cl)c1` [diuron] the “resistance or sensitivity of GB-2951 to the herbicide” value (“resistance or sensitivity” for short) [1] was “as sensitive”.
For `C[n+]1ccc(-c2cc[n+](C)cc2)cc1` [paraquat], the “resistance or sensitivity” value [1] was “as sensitive”.
`CC(C)OC(=O)c1cc(-n2c(=O)cc(C(F)(F)F)n(C)c2=O)ccc1Cl` [formula 20] was tested, and the crop phytotoxicity [2] was “no significant phytotoxicity”, the “weed control activity (growth)” value (Abutilon theophrasti) was “inhibited” and the “weed control activity (growth)” value (Echinochloa crus-galli) was “inhibited”. For the same compound, the “weed control activity (growth)” value (Ipomoea hederacea) was “inhibited”.
In the case of `C#CCOc1cc(N2C(=O)C3=C(CCCC3)C2=O)c(F)cc1Cl` [compound A, [N-(4-chloro-2-fluoro-5-propargyloxy)phenyl-]3,4,5,6-tetrahydrophthalimide], the “resistance or sensitivity” value [1] is reported as “showed resistance”, the “growth of sensitive transformants” value [3] is reported as “strongly suppressed” and the “growth of resistant transformants” value [4] is reported as “same level of growth”.
In the case of `COC(=O)c1cc(Oc2ccc(C(F)(F)F)cc2Cl)ccc1[N+](=O)[O-]` [acifluorfen-methyl], the “resistance or sensitivity” value [1] is reported as “showed resistance”.
